Numbered stars: 1 amine (or outer) side, 2 acyl side, 3 side chain; on linkers, the order of the positions; unused ones are H or OH. Bridge positions count the residues as written; N and C are the ends. Square brackets hold non-standard residues; d marks the D form. Peptide text beside a SMILES is read from it. * marks the point of attachment. Trp(1-CH2COOH) = N[C@@H](Cc1cn(CC(=O)O)c2ccccc12)C(=O)O; NMePhe(4-COOH) = CN[C@@H](Cc1ccc(C(=O)O)cc1)C(=O)O; Nle(6-morpholino) = N[C@@H](CCCCN1CCOCC1)C(=O)O; X2 = O=C([C@H](Cc1cn(CCO)c2ccccc12)N[*:1])[*:2]; Phe(3-COOH) = N[C@@H](Cc1cccc(C(=O)O)c1)C(=O)O; NMePhe(3-Cl) = CN[C@@H](Cc1cccc(Cl)c1)C(=O)O; 3Pal(6-NH2) = Nc1ccc(C[C@H](N)C(=O)O)cn1; NMeY = CN[C@@H](Cc1ccc(O)cc1)C(=O)O; Nva(3-Et) = CCC(CC)[C@H](N)C(=O)O; hArg = N=C(N)NCCCC[C@H](N)C(=O)O; 4Pal = N[C@@H](Cc1ccncc1)C(=O)O; PEG4 = NCCOCCOCCOCCOCCC(=O)O; Carboxymethyl = O=C(O)C*
How the values were obtained:
Assay type in all cases: binding
[1] = target: T1, human transferrin receptor (hTfR) (Homo sapiens, UniProt P02786); test: Evaluation of pH dependence (ratio of SPR koff or KD at pH 6.0 to pH 7.4); conditions: ratio of koff at pH 6.0 to pH 7.4
T1 sequence (P02786 whole entry): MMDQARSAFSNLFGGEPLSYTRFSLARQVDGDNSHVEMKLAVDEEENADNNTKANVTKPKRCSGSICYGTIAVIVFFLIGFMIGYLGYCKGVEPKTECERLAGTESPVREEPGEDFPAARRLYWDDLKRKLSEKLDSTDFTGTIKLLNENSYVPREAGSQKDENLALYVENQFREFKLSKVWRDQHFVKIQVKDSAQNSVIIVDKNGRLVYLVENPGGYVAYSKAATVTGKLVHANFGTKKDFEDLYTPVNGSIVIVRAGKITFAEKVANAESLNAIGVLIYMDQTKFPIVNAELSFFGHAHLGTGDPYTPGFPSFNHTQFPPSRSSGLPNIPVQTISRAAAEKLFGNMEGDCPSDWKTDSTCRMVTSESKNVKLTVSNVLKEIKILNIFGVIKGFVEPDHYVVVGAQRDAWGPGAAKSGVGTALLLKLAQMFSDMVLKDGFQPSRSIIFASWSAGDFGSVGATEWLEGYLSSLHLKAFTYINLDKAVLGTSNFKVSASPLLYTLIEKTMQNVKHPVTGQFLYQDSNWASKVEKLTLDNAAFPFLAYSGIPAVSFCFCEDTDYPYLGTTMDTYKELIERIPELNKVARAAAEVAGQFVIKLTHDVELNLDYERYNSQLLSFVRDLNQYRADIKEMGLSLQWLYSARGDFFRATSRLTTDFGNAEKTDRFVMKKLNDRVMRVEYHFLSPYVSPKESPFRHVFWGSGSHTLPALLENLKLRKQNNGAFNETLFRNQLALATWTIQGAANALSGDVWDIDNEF
Method: The ratio of the calculated koff or KD values under pH 6.0 conditions to those under pH 7.4 conditions was calculated to check pH dependency.

[2] = target: T1, human transferrin receptor (hTfR); test: SPR measurement under pH 7.4 conditions (Biacore T200, CM3 chip, hTfR captured by His Tag antibody); conditions: SPR, pH 7.4; read-out: hTfR SPR pH7.4 KD
[3] = target: T1, human transferrin receptor (hTfR); test: SPR measurement under pH 6.0 conditions (Biacore T200, NTA chip, immobilized hTfR); conditions: SPR, pH 6.0; read-out: hTfR SPR pH6.0 KD

dependency koff pH6.0/7.4 [1]	Kd [2] [nM]	Kd [3] [nM]	Compound
17.42	1910	219	CCC(CC)[C@@H]1NC(=O)[C@H](Cc2ccc(OCC(=O)O)cc2)NC(=O)[C@H](Cc2ccc(N)nc2)NC(=O)[C@H](CC(N)=O)NC(=O)[C@H](Cc2cn(CC(=O)O)c3ccccc23)NC(=O)[C@H](C(C)C)NC(=O)[C@H](Cc2cccc(Cl)c2)N(C)C(=O)[C@H](C(C)C)NC(=O)[C@H](C)NC(=O)CSC[C@@H](C(=O)NCCOCCOCCOCCOCCC(N)=O)NC(=O)[C@H](Cc2ccc(O)cc2)N(C)C(=O)[C@H](Cc2cccc(C(=O)O)c2)NC(=O)[C@H](CCCNC(=N)N)NC(=O)[C@H](CCC(N)=O)NC(=O)[C@H]([C@@H](C)CC)NC1=O [compound 84] ({CH2CO}-AV[NMePhe(3-Cl)]V[Trp(1-CH2COOH)]N[3Pal(6-NH2)]Y(Carboxymethyl)[Nva(3-Et)]IQR[Phe(3-COOH)][NMeY]C[PEG4]-NH2; thioether N-15)
17.51	175	466	CCC(CC)[C@@H]1NC(=O)[C@H](Cc2ccc(OCC(=O)O)cc2)NC(=O)[C@H](Cc2ccc(N)nc2)NC(=O)[C@H](CC(N)=O)NC(=O)[C@H](Cc2cn(CC(=O)O)c3ccccc23)NC(=O)[C@H](C(C)C)NC(=O)[C@H](Cc2cccc(Cl)c2)N(C)C(=O)[C@H](C(C)C)NC(=O)[C@H](C)NC(=O)CSC[C@@H](C(=O)NCCOCCOCCOCCOCCC(N)=O)NC(=O)[C@H](Cc2ccc(C(=O)O)cc2)N(C)C(=O)[C@H](Cc2cccc(C(=O)O)c2)NC(=O)[C@H](CCCNC(=N)N)NC(=O)[C@H](CCC(N)=O)NC(=O)[C@H]([C@@H](C)CC)NC1=O [compound 87] ({CH2CO}-AV[NMePhe(3-Cl)]V[Trp(1-CH2COOH)]N[3Pal(6-NH2)]Y(Carboxymethyl)[Nva(3-Et)]IQR[Phe(3-COOH)][NMePhe(4-COOH)]C[PEG4]-NH2; thioether N-15)
9.63	8.57	33.5	CC[C@H](C)[C@@H]1NC(=O)[C@H](Cc2ccc(OCC(=O)O)cc2)NC(=O)[C@H](Cc2ccc(O)cc2)NC(=O)[C@H](CC(N)=O)NC(=O)[C@H](Cc2cn(CC(=O)O)c3ccccc23)NC(=O)[C@H](C(C)C)NC(=O)[C@H](Cc2cccc(Cl)c2)N(C)C(=O)[C@H](C(C)C)NC(=O)[C@H](C)NC(=O)CSC[C@@H](C(=O)NCCOCCOCCOCCOCCC(N)=O)NC(=O)[C@H](Cc2ccc(O)cc2)N(C)C(=O)[C@H](Cc2ccncc2)NC(=O)[C@H](CCCCN2CCOCC2)NC(=O)[C@H](CCCCN2CCOCC2)NC(=O)[C@H]([C@@H](C)CC)NC1=O [compound 69] ({CH2CO}-AV[NMePhe(3-Cl)]V[Trp(1-CH2COOH)]NYY(Carboxymethyl)II[Nle(6-morpholino)][Nle(6-morpholino)][4Pal][NMeY]C[PEG4]-NH2; thioether N-15)
12.78	18	75.2	CC[C@H](C)[C@@H]1NC(=O)[C@H](Cc2ccc(OCC(=O)O)cc2)NC(=O)[C@H](Cc2ccc(O)cc2)NC(=O)[C@H](CC(N)=O)NC(=O)[C@H](Cc2cn(CC(=O)O)c3ccccc23)NC(=O)[C@H](C(C)C)NC(=O)[C@H](Cc2cccc(Cl)c2)N(C)C(=O)[C@H](C(C)C)NC(=O)[C@H](C)NC(=O)CSC[C@@H](C(=O)NCCOCCOCCOCCOCCC(N)=O)NC(=O)[C@H](Cc2ccc(O)cc2)N(C)C(=O)[C@H](Cc2cccc(C(=O)O)c2)NC(=O)[C@H](CCCNC(=N)N)NC(=O)[C@H](CCC(N)=O)NC(=O)[C@H](CCCCNC(=N)N)NC1=O [compound 71] ({CH2CO}-AV[NMePhe(3-Cl)]V[Trp(1-CH2COOH)]NYY(Carboxymethyl)I[hArg]QR[Phe(3-COOH)][NMeY]C[PEG4]-NH2; thioether N-15)
34.44	1.62	6.33	CCC(CC)[C@@H]1NC(=O)[C@H](Cc2ccc(OCC(=O)O)cc2)NC(=O)[C@H](Cc2ccc(O)cc2)NC(=O)[C@H](CC(N)=O)NC(=O)[C@H](Cc2c[nH]c3ccccc23)NC(=O)[C@H](C(C)C)NC(=O)[C@H](Cc2cccc(Cl)c2)N(C)C(=O)[C@H](C(C)C)NC(=O)[C@H](C)NC(=O)CSC[C@@H](C(=O)NCCOCCOCCOCCOCCC(N)=O)NC(=O)[C@H](Cc2ccc(O)cc2)N(C)C(=O)[C@H](Cc2cccc(C(=O)O)c2)NC(=O)[C@H](CCCNC(=N)N)NC(=O)[C@H](CCC(N)=O)NC(=O)[C@H]([C@@H](C)CC)NC1=O [compound 75] ({CH2CO}-AV[NMePhe(3-Cl)]VWNYY(Carboxymethyl)[Nva(3-Et)]IQR[Phe(3-COOH)][NMeY]C[PEG4]-NH2; thioether N-15)

Compound	dependency koff pH6.0/7.4 [1]	Kd [2] [nM]	Kd [3] [nM]
CC[C@H](C)[C@@H]1NC(=O)[C@H](Cc2ccc(OCC(=O)O)cc2)NC(=O)[C@H](Cc2ccc(O)cc2)NC(=O)[C@H](CC(N)=O)NC(=O)[C@H](Cc2cn(CCO)c3ccccc23)NC(=O)[C@H](C(C)C)NC(=O)[C@H](Cc2cccc(Cl)c2)N(C)C(=O)[C@H](C(C)C)NC(=O)[C@H](C)NC(=O)CSC[C@@H](C(=O)NCCOCCOCCOCCOCCC(N)=O)NC(=O)[C@H](Cc2ccc(O)cc2)N(C)C(=O)[C@H](Cc2cccc(C(=O)O)c2)NC(=O)[C@H](CCCNC(=N)N)NC(=O)[C@H](CCC(N)=O)NC(=O)[C@H]([C@@H](C)O)NC1=O [compound 76] ({CH2CO}-AV[NMePhe(3-Cl)]V[X2]NYY(Carboxymethyl)ITQR[Phe(3-COOH)][NMeY]C[PEG4]-NH2; thioether N-15)	3.37	13	17
CC[C@H](C)[C@@H]1NC(=O)[C@H](Cc2ccc(OCC(=O)O)cc2)NC(=O)[C@H](Cc2ccc(O)cc2)NC(=O)[C@H](CC(N)=O)NC(=O)[C@H](Cc2cn(CCO)c3ccccc23)NC(=O)[C@H](C(C)C)NC(=O)[C@H](Cc2cccc(Cl)c2)N(C)C(=O)[C@H](C(C)C)NC(=O)[C@H](C)NC(=O)CSC[C@@H](C(=O)NCCOCCOCCOCCOCCC(N)=O)NC(=O)[C@H](Cc2ccc(O)cc2)N(C)C(=O)[C@H](Cc2cccc(C(=O)O)c2)NC(=O)[C@H](CCCNC(=N)N)NC(=O)[C@H](CCC(N)=O)NC(=O)[C@H]([C@@H](C)CC)NC1=O [compound 73]	7.54	1.85	4.78

— patent EP4667483A1, “HUMAN TRANSFERRIN RECEPTOR-BINDING PEPTIDE” (JCR Pharmaceuticals Co., Ltd., priority 2023, dated 2024)
